The values that follow come from EP4722213A1, “NITROGEN-CONTAINING FUNCTIONAL GROUP-SUBSTITUTED PYRIDAZINOPYRIDONE DERIVATIVE AND USE THEREOF” (Sichuan Huiyu Pharmaceutical Co., Ltd., priority 2023, dated 2024).

In this assay the target is T1, SOS1 (Homo sapiens, UniProt Q07889).
T1 sequence (Q07889 1-1333): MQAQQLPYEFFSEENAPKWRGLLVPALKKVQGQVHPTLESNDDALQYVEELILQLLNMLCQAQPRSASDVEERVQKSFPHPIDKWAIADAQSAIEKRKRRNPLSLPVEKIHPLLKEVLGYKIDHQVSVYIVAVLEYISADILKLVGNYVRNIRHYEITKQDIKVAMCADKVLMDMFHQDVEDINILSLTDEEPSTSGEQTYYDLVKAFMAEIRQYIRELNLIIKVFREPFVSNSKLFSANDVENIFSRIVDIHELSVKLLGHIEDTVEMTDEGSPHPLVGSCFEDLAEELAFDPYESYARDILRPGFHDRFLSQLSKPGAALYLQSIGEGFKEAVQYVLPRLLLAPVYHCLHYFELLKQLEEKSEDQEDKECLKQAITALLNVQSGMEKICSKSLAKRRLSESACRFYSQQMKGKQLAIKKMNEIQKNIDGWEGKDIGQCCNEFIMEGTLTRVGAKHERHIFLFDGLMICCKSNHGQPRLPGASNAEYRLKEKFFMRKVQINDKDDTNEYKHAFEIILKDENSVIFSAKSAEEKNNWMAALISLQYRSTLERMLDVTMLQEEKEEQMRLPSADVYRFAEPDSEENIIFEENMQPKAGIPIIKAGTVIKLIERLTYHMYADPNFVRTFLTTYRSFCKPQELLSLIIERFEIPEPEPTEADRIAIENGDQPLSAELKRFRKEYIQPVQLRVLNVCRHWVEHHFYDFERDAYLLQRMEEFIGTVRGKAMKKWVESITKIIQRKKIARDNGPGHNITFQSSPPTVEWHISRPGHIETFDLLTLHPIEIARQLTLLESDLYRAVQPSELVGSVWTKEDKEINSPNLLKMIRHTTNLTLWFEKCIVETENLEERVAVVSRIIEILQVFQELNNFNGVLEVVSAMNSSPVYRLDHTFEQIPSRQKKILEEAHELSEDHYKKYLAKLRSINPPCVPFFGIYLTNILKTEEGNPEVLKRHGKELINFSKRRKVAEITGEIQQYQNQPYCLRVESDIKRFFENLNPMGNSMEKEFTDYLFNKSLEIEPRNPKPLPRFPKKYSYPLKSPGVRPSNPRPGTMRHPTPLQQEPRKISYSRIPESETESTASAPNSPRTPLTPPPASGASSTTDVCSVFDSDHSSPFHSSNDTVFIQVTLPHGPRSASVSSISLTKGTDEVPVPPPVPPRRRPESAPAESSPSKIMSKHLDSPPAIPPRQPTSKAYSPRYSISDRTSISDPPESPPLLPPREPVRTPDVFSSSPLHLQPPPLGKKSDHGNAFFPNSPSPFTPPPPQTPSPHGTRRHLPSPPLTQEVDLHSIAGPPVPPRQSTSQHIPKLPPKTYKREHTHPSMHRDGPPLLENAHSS
Put plainly: biochemical.
One may read the IC50 as the point on the concentration scale where inhibition reaches its midpoint. The low end stands for greater potency, the high end for weaker potency. Turning to `C[C@@H](Nc1nnc(-n2cncn2)c2cc(=O)n(C3CC3)cc12)c1cccc(C(F)F)c1F` [Example 1, (R)-6-cyclopropyl-4-((1-(3-(difluoromethyl)-2-fluorophenyl)ethyl)amino)-1-(1H-1,2,4-triazol-1-yl) pyrido[3,4-d]pyridazin-7(6H)-one], the 50% inhibitory concentration (IC50) amounted to 13.5 nM.

Compound `C[C@@H](Nc1nnc(N2CCCC2)c2cc(=O)n(C3CC3)cc12)c1cccc(C(F)F)c1F` [Example 4, (R)-6-cyclopropyl-4-((1-(3-(difluoromethyl)-2-fluorophenyl)ethyl)amino)-1-(pyrrolidin-1-yl) pyrido[3,4-d]pyridazin-7(6H)-one] had an IC50 of 4.9 nM.

`C[C@@H](Nc1nnc(N2CCCCC2)c2cc(=O)n(C3(C)CC3)cc12)c1cccc(C(F)F)c1F` [Example 6, (R)-4-((1-(3-(difluoromethyl)-2-fluorophenyl)ethyl)amino)-6-(1-methylcyclopropyl)-1-(piperidin-1-yl)pyrido[3,4-d]pyridazin-7(6H)-one]: the IC50 turned out to be 14.8 nM.

The compound `C[C@@H](Nc1nnc(N2CCOCC2)c2cc(=O)n(C3(C)CC3)cc12)c1cccc(C(F)F)c1F` [Example 7, (R)-4-((1-(3-(difluoromethyl)-2-fluorophenyl)ethyl)amino)-6-(1-methylcyclopropyl)-1-morpholinopyrido[3 ,4-d]pyridazin-7(6H)-one] registered an IC50 of 17.7 nM.

Consider `C[C@@H](Nc1nnc(N(C)C)c2cc(=O)n(C3(C)CC3)cc12)c1cccc(C(F)F)c1F` [Example 8, (R)-4-((1-(3-(difluoromethyl)-2-fluorophenyl)ethyl)amino)-1-(dimethylamino)-6-(1-methylcyclopropyl) pyrido[3,4-d]pyridazin-7(6H)-one], for which the midpoint of inhibition, the IC50, lay at 7.7 nM.

Compound `C[C@@H](Nc1nnc(N2CCC(F)(F)C2)c2cc(=O)n(C3CC3)cc12)c1cccc(C(F)F)c1F` [Example 14, (R)-6-cyclopropyl-4-((1-(3-(difluoromethyl)-2-fluorophenyl)ethyl)amino)-1-(3,3-difluoropyrrolidin-1-yl)pyrido[3,4-d]pyridazin-7(6H)-one] displayed an IC50 of 17.6 nM.

As to `CCN(CC)c1nnc(N[C@H](C)c2cccc(C(F)F)c2F)c2cn(C3CC3)c(=O)cc12` [Example 17, (R)-6-cyclopropyl-1-(diethylamino)-4-((1-(3-(difluoromethyl)-2-fluorophenyl)ethyl)amino)pyrido[3,4-d]pyridazin-7(6H)-one], half-maximal inhibition (IC50) was put at 11.2 nM.

For the compound `C[C@@H](Nc1nnc(N2CC3CC3C2)c2cc(=O)n(C3CC3)cc12)c1cccc(C(F)F)c1F` (stereo partly drawn) [Example 18, 1-(3-azabicyclo[3.1.0]hexan-3-yl)-6-cyclopropyl-4-(((R)-1-(3-(difluoromethyl)-2-fluorophenyl)ethyl)amino)pyrido[3,4-d]pyridazin-7(6H)-one], the 50% inhibitory concentration (IC50) was found to be 5.7 nM.

The compound `C[C@@H](Nc1nnc(N2CCC(F)(F)CC2)c2cc(=O)n(C3CC3)cc12)c1cccc(C(F)F)c1F` [Example 19, (R)-6-cyclopropyl-4-((1-(3-(difluoromethyl)-2-fluorophenyl)ethyl)amino)-1-(4,4-difluoropiperidin-1-yl)pyrido[3,4-d]pyridazin-7(6H)-one] had a half-maximal inhibitory concentration (IC50) of 27.2 nM.

`C[C@@H](Nc1nnc(N2CC(F)(F)C2)c2cc(=O)n(C3CC3)cc12)c1cccc(C(F)F)c1F` [Example 20, (R)-6-cyclopropyl-1-(3,3-difluoroazetidin-1-yl)-4-((1-(3-(difluoromethyl)-2-fluorophenyl)ethyl)amino)pyrido[3,4-d]pyridazin-7(6H)-one]: the IC50 was determined as 23.8 nM.

Consider `C[C@@H](Nc1nnc(N2CC3CC3C2)c2cc(=O)n(C3(C)CC3)cc12)c1cccc(C(F)F)c1F` (stereo partly drawn) [Example 21, 1-(3-azabicyclo[3.1.0]hexan-3-yl)-4-(((R)-1-(3-(difluoromethyl)-2-fluorophenyl)ethyl)amino)-6-(1-methylcyclopropyl) pyrido[3,4-d]pyridazin-7(6H)-one], for which the midpoint of inhibition, the IC50, lay at 6.9 nM.

For the compound `C[C@@H](Nc1nnc(N2CC(F)(F)C2)c2cc(=O)n(C3(C)CC3)cc12)c1cccc(C(F)F)c1F` [Example 22, (R)-1-(3,3-difluoroazetidin-1-yl)-4-((1-(3-(difluoromethyl)-2-fluorophenyl)ethyl)amino)-6-(1-methylcyclopropyl) pyrido[3,4-d]pyridazin-7(6H)-one], the midpoint of inhibition, the IC50, lay at 16.4 nM.

The compound `C[C@@H](Nc1nnc(N2CCC(F)(F)CC2)c2cc(=O)n(C3(C)CC3)cc12)c1cccc(C(F)F)c1F` [Example 23, (R)-4-((1-(3-(difluoromethyl)-2-fluorophenyl)ethyl)amino)-1-(4,4-difluoropiperidin-1-yl)-6-(1-methylcyclopropyl) pyrido[3,4-d]pyridazin-7(6H)-one] showed a half-inhibitory concentration (IC50) of 22.4 nM.

Compound `C[C@@H](Nc1nnc(N2CCS(=O)(=O)CC2)c2cc(=O)n(C3CC3)cc12)c1cccc(C(F)F)c1F` [Example 24, (R)-6-cyclopropyl-4-((1-(3-(difluoromethyl)-2-fluorophenyl)ethyl)amino)-1-(1,1-dioxidothiomorpholino)pyrido[3,4-d]pyridazin-7(6H)-one] showed an IC50 of 12.7 nM.

For the compound `C[C@@H]1CCCN1c1nnc(N[C@H](C)c2cccc(C(F)F)c2F)c2cn(C3CC3)c(=O)cc12` [Example 25, 6-cyclopropyl-4-(((R)-1-(3-(difluoromethyl)-2-fluorophenyl)ethyl)amino)-1-((R)-2-methylpyrrolidin-1-yl)pyrido[3,4-d]pyridazin-7(6H)-one], half-maximal inhibition (IC50) was put at 12 nM.

The compound `C[C@@H](Nc1nnc(N2CCC(F)(F)C2)c2cc(=O)n(C3(C)CC3)cc12)c1cccc(C(F)F)c1F` [Example 26, (R)-4-((1-(3-(difluoromethyl)-2-fluorophenyl)ethyl)amino)-1-(3,3-difluoropyrrolidin-1-yl)-6-(1-methylcyclopropyl) pyrido[3,4-d]pyridazin-7(6H)-one] returned a 50% inhibitory concentration (IC50) of 18.8 nM.

`C[C@@H](Nc1nnc(N2CCS(=O)(=O)CC2)c2cc(=O)n(C3(C)CC3)cc12)c1cccc(C(F)F)c1F` [Example 27, (R)-4-((1-(3-(difluoromethyl)-2-fluorophenyl)ethyl)amino)-1-(1,1-dioxidothiomorpholino)-6-(1-methylcyclopropyl) pyrido[3,4-d]pyridazin-7(6H)-one] yielded an IC50 of 16.5 nM.

`C[C@@H]1CCCN1c1nnc(N[C@H](C)c2cccc(C(F)F)c2F)c2cn(C3(C)CC3)c(=O)cc12` [Example 28, 4-(((R)-1-(3-(difluoromethyl)-2-fluorophenyl)ethyl)amino)-6-(1-methylcyclopropyl)-1-((R)-2-methylpyrrolidin-1-yl)pyrido[3,4-d]pyridazin-7(6H)-one] gave an IC50 of 5.7 nM.

As for `CCN(CC)c1nnc(N[C@H](C)c2cccc(C(F)F)c2F)c2cn(C3(C)CC3)c(=O)cc12` [Example 29, (R)-1-(diethylamino)-4-(((R)1-(3-(difluoromethyl)-2-fluorophenyl)ethyl)amino)-6-(1-methylcyclopropyl) pyrido[3,4-d]pyridazin-7(6H)-one], inhibition was half-maximal at 10.6 nM (IC50).

In the case of `C[C@@H](Nc1nnc(-n2cccn2)c2cc(=O)n(C3CC3)cc12)c1cccc(C(F)F)c1F` [Example 30, (R)-6-cyclopropyl-4-((1-(3-(difluoromethyl)-2-fluorophenyl)ethyl)amino)-1-(1H-pyrazol-1-yl) pyrido[3,4-d]pyridazin-7(6H)-one], the concentration for half-maximal inhibition (IC50) was 33.5 nM.
